Assay results: patent US9018208B2, “Heterocycles as potassium channel modulators” (Icagen Inc., priority 2007, dated 2015)
Where two headings read alike, the source gives them in different places.

Test system: SH-SY5Y M-currents (KCNQ2, KCNQ3 and KCNQ5)
Test: SH-SY5Y native cell line FLIPR assay (voltage-sensitive dye DiBAC)
Assay type: cell-based, mouse neuroblastoma, rat glioma hybrid cell line
Procedure, shortened: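 Response is peak DiBAC fluorescence change, normalised to the maximum from a positive control agent, sampled every 30 s over 25 min. Before compound addition, SH-SY5Y cells differentiated with PGE1 plus isomethylbutylxanthine were dye-loaded for 1 h in EBSS with […] DiBAC.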

[1] = SH-SY5Y native cell line, FLIPR assay (Table 3), read-out: SH-SY5Y EC50
[2] = FLIPR assay, SH-SY5Y native cell line, Table 2, read-out: SH-SY5Y EC50
[3] = SH-SY5Y native cell line, FLIPR assay (Table 6), read-out: SH-SY5Y EC50
[4] = FLIPR assay, SH-SY5Y native cell line, Table 1, read-out: SH-SY5Y EC50

Compound	EC50 [2] [nM]	other results
Cc1ccc(-c2c(NC(=O)CC(C)(C)C)nc3ccc(F)cn23)nc1 [Compound 359, N-(6-fluoro-3-(5-methylpyridin-2-yl)imidazo[1,2-a]pyridin-2-yl)-3,3-dimethylbutanamide]	–	EC50 [1]: 500 to 3000 nM
CC(C)C(C)C(=O)Nc1nc2ccc(F)cn2c1-c1nc2ccccc2s1 (stereo not drawn) [Compound 373, N-(3-(benzo[d]thiazol-2-yl)-6-fluoroimidazo[1,2-a]pyridin-2-yl)-2,3-dimethylbutanamide]	–	EC50 [1]: 3000 to 10000 nM
O=C(Cc1ccc(F)cc1)Nc1nc2ccccn2c1-c1ccc(OC(F)(F)F)cc1 [Compound 205, 2-(4-fluorophenyl)-N-(3-(4-(trifluoromethoxy)phenyl)imidazo[1,2-a]pyridin-2-yl)acetamide]	< 500	–
Cc1ccc2nc(NC(=O)CC(C)C(F)(F)F)c(-c3nccs3)n2n1 (stereo not drawn) [Compound 388, 4,4,4-trifluoro-3-methyl-N-(6-methyl-3-(thiazol-2-yl)imidazo[1,2-b]pyridazin-2-yl)butan amide]	–	EC50 [1]: 3000 to 10000 nM
CC(C)(CC(=O)Nc1nc2ccc(F)cn2c1CC1CCCCC1)C(F)(F)F [Compound 444, N-(3-(cyclohexylmethyl)-6-fluoroimidazo[1,2-a]pyridin-2-yl)-4,4,4-trifluoro-3,3-dimethylbutanamide]	–	EC50 [3]: < 500 nM
CC1(CC(=O)Nc2nc3ccc(F)cn3c2-c2ccc(OC(F)(F)F)cc2)CCCC1 [Compound 193, N-(6-fluoro-3-(4-(trifluoromethoxy)phenyl)imidazo[1,2-a]pyridin-2-yl)-2-(1-methylcyclopentyl)acetamide]	< 500	–
CC(C)(C)CC(=O)Nc1nc2cc(Cl)c(Cl)cn2c1-c1ccc(OC(F)(F)F)cc1 [Compound 216, N-(6,7-dichloro-3-(4-(trifluoromethoxy)phenyl)imidazo[1,2-a]pyridin-2-yl)-3,3-dimethylbutanamide]	< 500	–
CC(C)(C)Cc1c(NC(=O)C2CCC(F)(F)CC2)nc2ccc(C(F)(F)F)cn12 [Compound 73, 4,4-difluoro-N-(3-neopentyl-6-(trifluoromethyl)imidazo[1,2-a]pyridin-2-yl)cyclohexanecarboxamide]	–	EC50 [4]: < 500 nM
O=C(Cc1ccc(F)cc1)Nc1nc2ccc(Cl)cn2c1-c1ccc(F)cc1 [Compound 131, N-(6-chloro-3-(4-fluorophenyl)imidazo[1,2-a]pyridin-2-yl)-2-(4-fluorophenyl)acetamide]	< 500	–
CC(C)(C)CC(=O)Nc1nc2cc(C(F)(F)F)ccn2c1-c1ccc(F)cc1F [Compound 123, N-(3-(2,4-difluorophenyl)-7-(trifluoromethyl)imidazo[1,2-a]pyridin-2-yl)-3,3-dimethylbutanamide]	500 to 3000	–
O=C(Nc1nc2ccccn2c1-c1cc(C(F)(F)F)ccn1)C1CC1(F)F (stereo not drawn) [Compound 413, 2,2-difluoro-N-(3-(4-(trifluoromethyl)pyridin-2-yl)imidazo[1,2-a]pyridin-2-yl)cyclopropanecarboxamide]	–	EC50 [1]: 500 to 3000 nM
O=C(CC(F)(F)F)Nc1nc2ccc(F)cn2c1-c1cccc(OC(F)(F)F)c1 [Compound 263, 3,3,3-trifluoro-N-(6-fluoro-3-(3-(trifluoromethoxy)phenyl)imidazo[1,2-a]pyridin-2-yl)propanamide]	500 to 3000	–
2-(3-chlorophenyl)-N-(6-fluoro-3-(4-(trifluoromethoxy)phenyl)imidazo yl)acetamide [Compound 239]	< 500	–
O=C(Nc1nc2ccc(F)cn2c1-c1ccccc1)C(F)(F)F [Compound 91, 2,2,2-trifluoro-N-(6-fluoro-3-phenylimidazo[1,2-a]pyridin-2-yl)acetamide]	3000 to 10000	–
CC(C)(C)CC(=O)Nc1nc2ccc(F)cn2c1C1CC1 [Compound 14, N-(3-cyclopropyl-6-fluoroimidazo[1,2-a]pyridin-2-yl)-3,3-dimethylbutanamide]	–	EC50 [4]: 500 to 3000 nM; EC50 (read-out: SH-SY5Y_EC50): 2550 nM
O=C(NCCc1ccc(F)cc1)Nc1nc2ccc(F)cn2c1-c1ccc(C(F)(F)F)cc1 [Compound 213, 1-(6-fluoro-3-(4-(trifluoromethyl)phenyl)imidazo[1,2-a]pyridin-2-yl)-3-(4-fluorophenethyl)urea]	3000 to 10000	–

Compound	EC50 [2] [nM]	other results
CC(C)CCc1c(NC(=O)Cc2ccccc2)nc2ccc(C(F)(F)F)cn12 [Compound 36, N-(3-isopentyl-6-(trifluoromethyl)imidazo[1,2-a]pyridin-2-yl)-2-phenylacetamide]	–	EC50 [4]: < 500 nM
O=C(Cc1ccc(F)c(F)c1)Nc1nc2ccc(C(F)(F)F)cn2c1C1CC1 [Compound 77, N-(3-cyclopropyl-6-(trifluoromethyl)imidazo[1,2-a]pyridin-2-yl)-2-(3,4-difluorophenyl)acetamide]	–	EC50 [4]: < 500 nM
COc1ccc2nc(NC(=O)CC(C)(C)C)c(-c3nccs3)n2n1 [Compound 415, N-(6-methoxy-3-(thiazol-2-yl)imidazo[1,2-b]pyridazin-2-yl)-3,3-dimethylbutanamide]	–	EC50 [1]: 3000 to 10000 nM
O=C(Nc1nc2ccc(F)cn2c1-c1ccc(C(F)(F)F)cc1)OCc1ccccc1 [Compound 161, benzyl 6-fluoro-3-(4-(trifluoromethyl)phenyl)imidazo[1,2-a]pyridin-2-ylcarbamate]	3000 to 10000	–
O=C(Cc1ccccc1)Nc1nc2cc(C(F)(F)F)ccn2c1-c1ccccc1 [Compound 101, 2-phenyl-N-(3-phenyl-7-(trifluoromethyl)imidazo[1,2-a]pyridin-2-yl)acetamide]	500 to 3000	–
Cc1ccc2nc(NC(=O)CC(C)C(F)(F)F)c(-c3nc4ccccc4s3)n2n1 (stereo not drawn) [Compound 386, N-(3-(benzo[d]thiazol-2-yl)-6-methylimidazo[1,2-b]pyridazin-2-yl)-4,4,4-trifluoro-3-methylbutanamide]	–	EC50 [1]: 3000 to 10000 nM
CC(C)(C)CCC(=O)Nc1nc2ccc(F)cn2c1-c1nc2ccccc2s1 [Compound 372, N-(3-(benzo[d]thiazol-2-yl)-6-fluoroimidazo[1,2-a]pyridin-2-yl)-4,4-dimethylpentanamide]	–	EC50 [1]: 500 to 3000 nM
O=C(CC1CCCC1)Nc1nc2cc(C(F)(F)F)ccn2c1-c1ccc(F)cc1F [Compound 125, 2-cyclopentyl-N-(3-(2,4-difluorophenyl)-7-(trifluoromethyl)imidazo[1,2-a]pyridin-2-yl)acetamide]	500 to 3000	–
N#Cc1ccc2nc(NC(=O)Cc3ccccc3)c(-c3ccc(F)cc3)n2c1 [Compound 160, N-(6-cyano-3-(4-fluorophenyl)imidazo[1,2-a]pyridin-2-yl)-2-phenylacetamide]	500 to 3000	–
CC(C)CCc1c(NC(=O)CC2(C)CCCC2)nc2ccc(C(F)(F)F)cn12 [Compound 45, N-(3-isopentyl-6-(trifluoromethyl)imidazo[1,2-a]pyridin-2-yl)-2-(1-methylcyclopentyl)acetamide]	–	EC50 [4]: < 500 nM
O=C(Cc1ccc(F)cc1)Nc1nc2ccc(F)cn2c1-c1ccc(F)cc1F [Compound 117, N-(3-(2,4-difluorophenyl)-6-fluoroimidazo[1,2-a]pyridin-2-yl)-2-(4-fluorophenyl)acetamide]	500 to 3000	–
CC(C)(CC(=O)Nc1nc2ccc(C(F)(F)F)cn2c1C1CCCC1)C(F)(F)F [Compound 442, N-(3-cyclopentyl-6-(trifluoromethyl)imidazo[1,2-a]pyridin-2-yl)-4,4,4-trifluoro-3,3-dimethylbutanamide]	–	EC50 [3]: < 500 nM
CC(C)(C)Cc1c(NC(=O)Cc2ccc(F)cc2)nc2ccc(C(F)(F)F)cn12 [Compound 21, 2-(4-fluorophenyl)-N-(3-neopentyl-6-(trifluoromethyl)imidazo[1,2-a]pyridin-2-yl)acetamide]	–	EC50 [4]: < 500 nM
CC(CC(=O)Nc1nc2ccc(C(F)(F)F)cn2c1-c1nccs1)C(F)(F)F (stereo not drawn) [Compound 83, 4,4,4-trifluoro-3-methyl-N-(3-(thiazol-2-yl)-6-(trifluoromethyl)imidazo[1,2-a]pyridin-2-yl)butanamide]	–	EC50 [4]: 3000 to 10000 nM
CC(CC(=O)Nc1nc2ccc(F)cn2c1-c1ccc(F)cc1)C(F)(F)F (stereo not drawn) [Compound 144, 4,4,4-trifluoro-N-(6-fluoro-3-(4-fluorophenyl)imidazo[1,2-a]pyridin-2-yl)-3-methylbutanamide]	500 to 3000	–
O=C(Cc1ccc(Cl)cc1)Nc1nc2ccc(F)cn2c1-c1ccc(F)cc1 [Compound 145, 2-(4-chlorophenyl)-N-(6-fluoro-3-(4-fluorophenyl)imidazo[1,2-a]pyridin-2-yl)acetamide]	500 to 3000	–

Now from value to compound, other results behind:

EC50 [2] [nM]	Compound	other results
500 to 3000	O=C(Cc1ccc(F)cc1)Nc1nc2ncc(Cl)cn2c1-c1ccc(C(F)(F)F)cc1 [Compound 317, N-(6-chloro-3-(4-(trifluoromethyl)phenyl)imidazo[1,2-a]pyrimidin-2-yl)-2-(4-fluorophenyl)acetamide]	–
< 500	CC(CC(=O)Nc1nc2ccc(F)cn2c1-c1cccc(OC(F)(F)F)c1)C(F)(F)F (stereo not drawn) [Compound 276, 4,4,4-trifluoro-N-(6-fluoro-3-(3-(trifluoromethoxy)phenyl)imidazo[1,2-a]pyridin-2-yl)-3-methylbutanamide]	–
< 500	O=C(Nc1nc2ccc(F)cn2c1-c1cccc(OC(F)(F)F)c1)C1CCC(F)(F)CC1 [Compound 327, 4,4-difluoro-N-(6-fluoro-3-(3-(trifluoromethoxy)phenyl)imidazo[1,2-a]pyridin-2-yl)cyclohexanecarboxamide]	–
< 500	O=C(Nc1nc2ccc(F)cn2c1-c1ccc(OC(F)(F)F)cc1)C1CCCC1 [Compound 290, N-(6-fluoro-3-(4-(trifluoromethoxy)phenyl)imidazo[1,2-a]pyridin-2-yl)cyclopentanecarboxamide]	–
< 500	CC(C)(C)CC(=O)Nc1nc2ccccn2c1-c1cccc(OC(F)(F)F)c1 [Compound 342, 3,3-dimethyl-N-(3-(3-(trifluoromethoxy)phenyl)imidazo[1,2-a]pyridin-2-yl)butanamide]	–
< 500	O=C(Nc1nc2ccc(F)cn2c1-c1cccc(C(F)(F)F)c1)C1CCCC1 [Compound 289, N-(6-fluoro-3-(3-(trifluoromethyl)phenyl)imidazo[1,2-a]pyridin-2-yl)cyclopentanecarboxamide]	–
